pIC50: −log10 of the molar value.
Biological target: human adenosine A2a receptor (Homo sapiens (Human), UniProt P29274)
Assay: A2a receptor binding affinity, [3H]-NECA radioligand binding test
Settings: [3H]-NECA 37 nM; membrane from HEK-293 cells transfected with human adenosine A2a receptor
Method in brief: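 Membranes from HEK-293 cells expressing human A2a receptor were incubated with [3H]-NECA (final 37 nM) and compound for 1 h at room temperature in 50 mM Tris, 10 mM MgCl2, 1 mM EDTA, pH 7.4. Bound ligand was filtered on PEI-coated plates and counted by scintillation to derive IC50 (μM).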

Chain of human adenosine A2a receptor (P29274 whole entry): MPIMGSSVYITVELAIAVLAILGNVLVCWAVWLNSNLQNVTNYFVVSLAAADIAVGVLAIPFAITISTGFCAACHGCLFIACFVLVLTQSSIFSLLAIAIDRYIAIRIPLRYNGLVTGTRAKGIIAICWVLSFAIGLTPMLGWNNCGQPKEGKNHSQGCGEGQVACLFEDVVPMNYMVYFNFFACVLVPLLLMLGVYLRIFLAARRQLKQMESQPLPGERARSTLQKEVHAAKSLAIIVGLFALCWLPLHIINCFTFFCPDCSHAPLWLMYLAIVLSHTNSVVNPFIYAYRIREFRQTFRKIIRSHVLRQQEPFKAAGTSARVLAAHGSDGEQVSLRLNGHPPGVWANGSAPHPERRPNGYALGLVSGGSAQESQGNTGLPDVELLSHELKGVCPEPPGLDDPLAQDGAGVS

Going from `Nc1nc(N[C@H](C(=O)N2CCN(CC(F)F)CC2)C2CC2)nc2nc(-c3ccco3)nn12` [Example 354, (S)-2-((7-amino-2-(furan-2-yl)-[1,2,4]triazolo[1,5-a][1,3,5]triazin-5-yl)amino)-2-cyclopropyl-1-(4-(2,2-difluoroethyl)piperazin-1-yl)ethan-1-one] to `Nc1nc(N[C@H](C(=O)N2CCN(CC(F)(F)C(F)F)CC2)C2CC2)nc2nc(-c3ccco3)nn12` [Example 359, (S)-2-((7-amino-2-(furan-2-yl)-[1,2,4]triazolo [1,5-a][1,3,5]triazin-5-yl)amino)-2-cyclopropyl-1-(4-(2,2,3,3-tetrafluoropropyl)piperazin-1-yl)ethan-1-one], the pIC50 rises from 7.66 to 8.30 (0.64 log units). The second is the more potent here.

`CC(C)[C@H](Nc1nc(N)n2nc(-c3ccco3)nc2n1)C(=O)N1CCN(CC(F)F)CC1` [Example 355, (S)-2-((7-amino-2-(furan-2-yl)-[1,2,4]triazolo[1,5-a][1,3,5]triazin-5-yl)amino)-1-(4-(2,2-difluoroethyl)piperazin-1-yl)-3-methylbutan-1-one] and `CC(C)[C@H](Nc1nc(N)n2nc(-c3ccco3)nc2n1)C(=O)N1CCN(CC(C)(F)F)CC1` [Example 360, (S)-2-((7-amino-2-(furan-2-yl)-[1,2,4]triazolo[1,5-a][1,3,5]triazin-5-yl)amino)-1-(4-(2,2-difluoropropyl)piperazin-1-yl)-3-methylbutan-1-one] are within 0.2 log units of each other in pIC50: 7.85 for the first, 8.00 for the second.

`CC[C@H](Nc1nc(N)n2nc(-c3ccco3)nc2n1)C(=O)N1CCN(CC(C)(F)F)CC1` [Example 356, (S)-2-((7-amino-2-(furan-2-yl)-[1,2,4]triazolo[1,5-a][1,3,5]triazin-5-yl)amino)-1-(4-(2,2-difluoropropyl)piperazin-1-yl)butan-1-one] and `CC[C@H](Nc1nc(N)n2nc(-c3ccco3)nc2n1)C(=O)N1CCN(CC(F)(F)C(F)F)CC1` [Example 358, (S)-2-((7-amino-2-(furan-2-yl)-[1,2,4]triazolo[1,5-a][1,3,5]triazin-5-yl)amino)-1-(4-(2,2,3,3-tetrafluoropropyl)piperazin-1-yl)butan-1-one] are the same in pIC50: 8.00 for the first, 8.00 for the second.

Going from `CC(F)(F)CN1CCN(C(=O)[C@@H](Nc2nc(N)n3nc(-c4ccco4)nc3n2)C2CC2)CC1` [Example 357, (S)-2-((7-amino-2-(furan-2-yl)-[1,2,4]triazolo[1,5-a][1,3,5]triazin-5-yl)amino)-2-cyclopropyl-1-(4-(2,2-difluoropropyl)piperazin-1-yl)ethan-1-one] to `CC(C)(O)CC(=O)N1CCN(C(=O)[C@@H](Nc2nc(N)n3nc(-c4ccco4)nc3n2)C2CC2)CC1` [Example 370, (S)-1-(4-(2-((7-amino-2-(furan-2-yl)-[1,2,4]triazolo[1,5-a][1,3,5]triazin-5-yl)amino)-2-cyclopropylacetyl)piperazin-1-yl)-3-hydroxy-3-methylbutan-1-one], the pIC50 rises from 8.05 to 8.40 (0.35 log units).

Compared with `CCCCN1CCN(C(=O)[C@@H]2CCCN2c2cc3nc(-c4ccco4)nn3c(N)n2)CC1` [Example 361, (S)-(1-(5-amino-2-(furan-2-yl)-[1,2,4]triazolo[1,5-c]pyrimidin-7-yl)pyrrolidin-2-yl)(4-butylpiperazin-1-yl)methanone], `COCCN1CCC(C2CCN(C(=O)[C@@H]3CCN3c3cc4nc(-c5ccco5)nn4c(N)n3)CC2)CC1` [Example 380, (S)-(1-(5-amino-2-(furan-2-yl)-[1,2,4]triazolo[1,5-c]pyrimidin-7-yl)azetidin-2-yl)(1′-(2-methoxyethyl)-[4,4′-bipiperidin]-1-yl)methanone] is 0.25 log units higher in pIC50: 8.05 for the first, 8.30 for the second. The second is the more potent here.

Compared with `Nc1nc(N2CCC[C@H]2C(=O)N2CCC3(CC2)CN(CC(F)(F)F)C3)nc2nc(-c3ccco3)nn12` [Example 362, (S)-(1-(7-amino-2-(furan-2-yl)-[1,2,4]triazolo[1,5-a][1,3,5]triazin-5-yl)pyrrolidin-2-yl)(2-(2,2,2-trifluoroethyl)-2,7-diazaspiro[3.5]nonan-7-yl)methanone], `Nc1nc(N2CCC[C@H]2C(=O)N2CC3(CCN(CC(F)(F)F)CC3)C2)nc2nc(-c3ccco3)nn12` [Example 363, (S)-(1-(7-amino-2-(furan-2-yl)-[1,2,4]triazolo[1,5-a][1,3,5]triazin-5-yl)pyrrolidin-2-yl)(7-(2,2,2-trifluoroethyl)-2,7-diazaspiro[3-5]nonan-2-yl)methanone] is 0.40 log units higher in pIC50: 7.52 for the first, 7.92 for the second. The second is the more potent here.

`CC(F)(F)CN1CC2(CCN(C(=O)[C@@H]3CCCN3c3nc(N)n4nc(-c5ccco5)nc4n3)CC2)C1` [Example 364, (S)-(1-(7-amino-2-(furan-2-yl)-[1,2,4]triazolo[1,5-a][1,3,5]triazin-5-yl)pyrrolidin-2-yl)(2-(2,2-difluoropropyl)-2,7-diazaspiro[3.5]nonan-7-yl)methanone] and `CC(F)(F)CN1CCC2(CC1)CN(C(=O)[C@@H]1CCCN1c1nc(N)n3nc(-c4ccco4)nc3n1)C2` [Example 365, (S)-(1-(7-amino-2-(furan-2-yl)-[1,2,4]triazolo[1,5-a][1,3,5]triazin-5-yl)pyrrolidin-2-yl)(7-(2,2-difluoropropyl)-2,7-diazaspiro[3-5]nonan-2-yl)methanone] are within 0.2 log units of each other in pIC50: 7.92 for the first, 7.89 for the second.

First: C[C@H](Nc1nc(N)n2nc(-c3ccco3)nc2n1)C(=O)N1CC2(CCN(CC(C)(F)F)CC2)C1 [Example 366, (S)-2-((7-amino-2-(furan-2-yl)-[1,2,4]triazolo[1,5-a][1,3,5]triazin-5-yl)amino)-1-(7-(2,2-difluoropropyl)-2,7-diazaspiro[3-5]nonan-2-yl)propan-1-one]
Second: CC(C)[C@H](Nc1nc(N)n2nc(-c3ccco3)nc2n1)C(=O)N1CCN(CCC(F)(F)F)CC1 [Example 367, (S)-2-((7-amino-2-(furan-2-yl)-[1,2,4]triazolo[1,5-a][1,3,5]triazin-5-yl)amino)-3-methyl-1-(4-(3,3,3-trifluoropropyl)piperazin-1-yl)butan-1-one]
The pIC50 of the first is 0.25 log units higher: 8.10 for the first, 7.85 for the second.

First: CC[C@H](Nc1nc(N)n2nc(-c3ccco3)nc2n1)C(=O)N1CCN(C(=O)CC(C)(C)O)CC1 [Example 368, (S)-1-(4-(2-((7-amino-2-(furan-2-yl)-[1,2,4]triazolo[1,5-a][1,3,5]triazin-5-yl)amino)butanoyl)piperazin-1-yl)-3-hydroxy-3-methylbutan-1-one]
Second: CC(C)[C@H](Nc1nc(N)n2nc(-c3ccco3)nc2n1)C(=O)N1CCN(C(=O)CC(C)(C)O)CC1 [Example 369, 1-(4-((7-amino-2-(furan-2-yl)-[1,2,4]triazolo[1,5-a][1,3,5]triazin-5-yl)-L-valyl)piperazin-1-yl)-3-hydroxy-3-methylbutan-1-one]
The pIC50 of the first is 0.67 log units higher: 8.52 for the first, 7.85 for the second. The first is the more potent here.

Compared with `C[C@@H]1CN(CC(F)F)CCN1C(=O)[C@@H]1CCCN1c1nc(N)n2nc(-c3ccco3)nc2n1` [Example 371, ((S)-1-(7-amino-2-(furan-2-yl)-[1,2,4]triazolo[1,5-a][1,3,5]triazin-5-yl)pyrrolidin-2-yl)((R)-4-(2,2-difluoroethyl)-2-methylpiperazin-1-yl)methanone], `C[C@@H]1CN(CC(C)(F)F)CCN1C(=O)[C@@H]1CCCN1c1nc(N)n2nc(-c3ccco3)nc2n1` [Example 372, ((S)-1-(7-amino-2-(furan-2-yl)-[1,2,4]triazolo[1,5-a][1,3,5]triazin-5-yl)pyrrolidin-2-yl)((R)-4-(2,2-difluoropropyl)-2-methylpiperazin-1-yl) methanone] is 1.04 log units higher in pIC50: 7.96 for the first, 9.00 for the second.

Compared with `C[C@@H]1CN(CC(C)(C)O)CCN1C(=O)[C@@H]1CCCN1c1nc(N)n2nc(-c3ccco3)nc2n1` [Example 373, ((S)-1-(7-amino-2-(furan-2-yl)-[1,2,4]triazolo[1,5-a][1,3,5]triazin-5-yl)pyrrolidin-2-yl)((R)-4-(2-hydroxy-2-methylpropyl)-2-methylpiperazin-1-yl)methanone], `C[C@@H]1CN(CC(C)(C)F)CCN1C(=O)[C@@H]1CCCN1c1nc(N)n2nc(-c3ccco3)nc2n1` [Example 374, ((S)-1-(7-amino-2-(furan-2-yl)-[1,2,4]triazolo[1,5-a][1,3,5]triazin-5-yl)pyrrolidin-2-yl)((R)-4-(2-fluoro-2-methylpropyl)-2-methylpiperazin-1-yl) methanone] is 0.40 log units higher in pIC50: 8.70 for the first, 9.10 for the second.

First: C[C@H](Nc1cc2nc(-c3ccco3)nn2c(N)n1)C(=O)N1CCN(CC(C)(C)F)CC1 [Example 375, (S)-2-((5-amino-2-(furan-2-yl)-[1,2,4]triazolo[1,5-c]pyrimidin-7-yl)amino)-1-(4-(2-fluoro-2-methylpropyl)piperazin-1-yl)propan-1-one]
Second: CC(F)(F)CN1CCC(C2CCN(C(=O)[C@@H]3CCN3c3cc4nc(-c5ccco5)nn4c(N)n3)CC2)CC1 [Example 379, (S)-(1-(5-amino-2-(furan-2-yl)-[1,2,4]triazolo[1,5-c]pyrimidin-7-yl)azetidin-2-yl)(1′-(2,2-difluoropropyl)-[4,4′-bipiperidin]-1-yl)methanone]
The pIC50 of the first is 0.60 log units lower: 8.10 for the first, 8.70 for the second. The second is the more potent here.

First: Nc1nc(N2CCC[C@H]2C(=O)N2CCC(C3CCN(CC(F)(F)F)CC3)CC2)cc2nc(-c3ccco3)nn12 [Example 376, (S)-(1-(5-amino-2-(furan-2-yl)-[1,2,4]triazolo[1,5-c]pyrimidin-7-yl)pyrrolidin-2-yl)(1′-(2,2,2-trifluoroethyl)-[4,4′-bipiperidin]-1-yl)methanone]
Second: Nc1nc(N2CC[C@H]2C(=O)N2CCC(C3CCN(CC(F)(F)F)CC3)CC2)cc2nc(-c3ccco3)nn12 [Example 377, (S)-(1-(5-amino-2-(furan-2-yl)-[1,2,4]triazolo[1,5-c]pyrimidin-7-yl)azetidin-2-yl)(1′-(2,2,2-trifluoroethyl)-[4,4′-bipiperidin]-1-yl)methanone]
The pIC50 of the first is 1.00 log units lower: 9.00 for the first, 10.00 for the second.

For `Nc1nc(N2CC[C@H]2C(=O)N2CCC(C3CCN(CC(F)F)CC3)CC2)cc2nc(-c3ccco3)nn12` [Example 378, (S)-(1-(5-amino-2-(furan-2-yl)-[1,2,4]triazolo[1,5-c]pyrimidin-7-yl)azetidin-2-yl)(1′-(2,2-difluoroethyl)-[4,4′-bipiperidin]-1-yl)methanone], the pIC50 was 9.15.

— patent US20240217978A1 (CHONG KUN DANG PHARMACEUTICAL CORP., priority 2021, published 2024)
